Experimental data reported in PMC2982820, “Characterisation of PduS, the pdu Metabolosome Corrin Reductase, and Evidence of Substructural Organisation within the Bacterial Microcompartment” (PLoS ONE, 2010).

How the values were obtained:
[1] = target: T1, PduS (Citrobacter freundii, UniProt B1VB77); assay: heat release of bound flavin, RP-HPLC-MS against FMN and FAD standards; format: binding; details: non-covalently bound, co-purified
T1 construct: full length, N-terminal hexa-His tag (pET14b, pJP024; template pAR3114), E. coli BL21(DE3)pLysS; FMN and two [4Fe-4S] when purified anaerobically
T1 sequence (B1VB77 1-451): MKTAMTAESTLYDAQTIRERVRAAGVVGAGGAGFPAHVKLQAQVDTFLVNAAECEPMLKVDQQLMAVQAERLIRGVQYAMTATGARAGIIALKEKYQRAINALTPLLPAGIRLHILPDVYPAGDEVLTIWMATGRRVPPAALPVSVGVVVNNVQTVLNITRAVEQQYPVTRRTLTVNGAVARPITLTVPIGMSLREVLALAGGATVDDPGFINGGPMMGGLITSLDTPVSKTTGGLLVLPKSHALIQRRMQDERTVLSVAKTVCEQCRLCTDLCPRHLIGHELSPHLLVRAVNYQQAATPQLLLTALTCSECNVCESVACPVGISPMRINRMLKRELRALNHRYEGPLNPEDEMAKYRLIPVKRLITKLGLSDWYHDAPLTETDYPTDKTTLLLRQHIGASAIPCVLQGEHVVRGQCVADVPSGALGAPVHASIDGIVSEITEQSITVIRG

[2] = substrate: NC(=O)C1=CN([C@@H]2O[C@H](COP(=O)(O)OP(=O)(O)OC[C@H]3O[C@@H](n4cnc5c(N)ncnc54)[C@H](O)[C@@H]3O)[C@@H](O)[C@H]2O)C=CC1; assay: purified protein; format: biochemical, Citrobacter freundii; details: cob(III)alamin as co-substrate, 20 mM Tris-HCl pH 8.0, 37 °C, anaerobic

Cc1cc2nc3c(=O)[nH]c(=O)nc-3n(C[C@H](O)[C@H](O)[C@H](O)COP(=O)(O)O)c2cc1C [FMN]
heat release of bound flavin, RP-HPLC-MS against FMN and FAD standards [1]: flavin extracted from PduS was found to have a retention time identical to authentic FMN

B1: PduS (Citrobacter freundii) (protein)
chain: T1 sequence (B1VB77 1-451)
notes: full length, N-terminal hexa-His tag (pET14b, pJP024; template pAR3114), E. coli BL21(DE3)pLysS; FMN and two [4Fe-4S] when purified anaerobically
Km [2]: 24.7 µM
